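Compound exposure: 48 hours, 5 concentrations, 96-well plates. TGI denotes the concentration required for complete inhibition of growth.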
What was measured:
Assay in all cases: NCI-60 cell line screen, 48 h
HOP-92 NSCLC = system: HOP-92 NSCLC
HOP-62 NSCLC = system: HOP-62 NSCLC
DU-145 prostate = system: DU-145 prostate
HCT-15 colon = system: HCT-15 colon
HS 578T breast = system: HS 578T breast
MOLT-4 leukemia = system: MOLT-4 leukemia
NCI-H23 lung = system: NCI-H23 lung
TK-10 renal = system: TK-10 renal
RPMI-8226 leukemia = system: RPMI-8226 leukemia
UACC-257 melanoma = system: UACC-257 melanoma
T-47D breast = system: T-47D breast
SK-OV-3 ovarian = system: SK-OV-3 ovarian
OVCAR-4 ovarian = system: OVCAR-4 ovarian
RXF 393 renal = system: RXF 393 renal
SF-295 CNS = system: SF-295 CNS
SW-620 colon = system: SW-620 colon
MDA-MB-231 breast = system: MDA-MB-231 breast
MALME-3M melanoma = system: MALME-3M melanoma
SK-MEL-2 melanoma = system: SK-MEL-2 melanoma
MDA-N = system: MDA-N
MDA-MB-435 = system: MDA-MB-435
SF-268 CNS = system: SF-268 CNS
NCI/ADR-RES ovarian = system: NCI/ADR-RES ovarian
SNB-19 CNS = system: SNB-19 CNS
SK-MEL-5 melanoma = system: SK-MEL-5 melanoma
MCF7 breast = system: MCF7 breast
HT29 colon = system: HT29 colon
EKVX NSCLC = system: EKVX NSCLC
LOX IMVI melanoma = system: LOX IMVI melanoma
ACHN renal = system: ACHN renal
NCI-H522 lung = system: NCI-H522 lung
A549 NSCLC = system: A549 NSCLC
HCC-2998 colon = system: HCC-2998 colon
786-0 renal = system: 786-0 renal
OVCAR-8 ovarian = system: OVCAR-8 ovarian
U251 CNS = system: U251 CNS
SK-MEL-28 melanoma = system: SK-MEL-28 melanoma
KM12 colon = system: KM12 colon
HL-60(TB) leukemia = system: HL-60(TB) leukemia
SN12C renal = system: SN12C renal
UACC-62 melanoma = system: UACC-62 melanoma
A498 renal = system: A498 renal
UO-31 renal = system: UO-31 renal
SF-539 CNS = system: SF-539 CNS
NCI-H226 lung = system: NCI-H226 lung
OVCAR-5 ovarian = system: OVCAR-5 ovarian
OVCAR-3 ovarian = system: OVCAR-3 ovarian
HCT-116 colon = system: HCT-116 colon
NCI-H460 lung = system: NCI-H460 lung
M14 melanoma = system: M14 melanoma
BT-549 breast = system: BT-549 breast
K-562 leukemia = system: K-562 leukemia
IGROV1 ovarian = system: IGROV1 ovarian
CAKI-1 renal = system: CAKI-1 renal
COLO 205 colon = system: COLO 205 colon
PC-3 prostate = system: PC-3 prostate
SR leukemia = system: SR leukemia
SNB-75 CNS = system: SNB-75 CNS
CCRF-CEM leukemia = system: CCRF-CEM leukemia

## CC(=O)C(=Cc1ccc(C=C(C(C)=O)C(C)=O)cc1)C(C)=O
HOP-92 NSCLC
  TGI: 5.87 µM
HOP-62 NSCLC
  TGI: 6.38 µM
DU-145 prostate
  TGI: 11.9 µM
HCT-15 colon
  TGI: 3.44 µM
HS 578T breast
  TGI: 22.6 µM
MOLT-4 leukemia
  TGI: 3.6 µM
NCI-H23 lung
  TGI: 4.59 µM
TK-10 renal
  TGI: 5.31 µM
RPMI-8226 leukemia
  TGI: 1.71 µM
UACC-257 melanoma
  TGI: 4.48 µM
T-47D breast
  TGI: 8.49 µM
SK-OV-3 ovarian
  TGI: 17 µM
OVCAR-4 ovarian
  TGI: 6.76 µM
RXF 393 renal
  TGI: 3.51 µM
SF-295 CNS
  TGI: 7.97 µM
SW-620 colon
  TGI: 1.83 µM
MDA-MB-231 breast
  TGI: 4.4 µM
MALME-3M melanoma
  TGI: 4.84 µM
SK-MEL-2 melanoma
  TGI: 5.54 µM
MDA-N
  TGI: 5.94 µM
MDA-MB-435
  TGI: 5.66 µM
SF-268 CNS
  TGI: 3.97 µM
NCI/ADR-RES ovarian
  TGI: 11.2 µM
SNB-19 CNS
  TGI: 5.46 µM
SK-MEL-5 melanoma
  TGI: 3.36 µM
MCF7 breast
  TGI: 2.36 µM
HT29 colon
  TGI: 3.05 µM
EKVX NSCLC
  TGI: 8.76 µM
LOX IMVI melanoma
  TGI: 1.91 µM
ACHN renal
  TGI: 3.59 µM
NCI-H522 lung
  TGI: 1.93 µM
A549 NSCLC
  TGI: 25.2 µM
HCC-2998 colon
  TGI: 7.66 µM
786-0 renal
  TGI: 5.84 µM
OVCAR-8 ovarian
  TGI: 14.6 µM
U251 CNS
  TGI: 4.24 µM
SK-MEL-28 melanoma
  TGI: 4.48 µM
KM12 colon
  TGI: 6.18 µM
HL-60(TB) leukemia
  TGI: 4.52 µM
SN12C renal
  TGI: 3.07 µM
UACC-62 melanoma
  TGI: 4.02 µM
A498 renal
  TGI: 9.03 µM
UO-31 renal
  TGI: 3.1 µM
SF-539 CNS
  TGI: 4.03 µM
NCI-H226 lung
  TGI: 7.8 µM
OVCAR-5 ovarian
  TGI: 5.88 µM
OVCAR-3 ovarian
  TGI: 5 µM
HCT-116 colon
  TGI: 1.81 µM
NCI-H460 lung
  TGI: 7.38 µM
M14 melanoma
  TGI: 3.59 µM
BT-549 breast
  TGI: 4.6 µM
K-562 leukemia
  TGI: 6.12 µM
IGROV1 ovarian
  TGI: 4.18 µM
CAKI-1 renal
  TGI: 4.75 µM
COLO 205 colon
  TGI: 3.33 µM
PC-3 prostate
  TGI: 5.17 µM

## CN1CCN(c2ncc3c(n2)sc2c(=O)n(-c4ccccc4)cnc23)CC1
HOP-92 NSCLC
  TGI: > 100 µM
HOP-62 NSCLC
  TGI: > 100 µM
DU-145 prostate
  TGI: > 100 µM
HCT-15 colon
  TGI: > 100 µM
HS 578T breast
  TGI: > 100 µM
MOLT-4 leukemia
  TGI: > 100 µM
NCI-H23 lung
  TGI: > 100 µM
TK-10 renal
  TGI: > 100 µM
RPMI-8226 leukemia
  TGI: > 100 µM
UACC-257 melanoma
  TGI: > 100 µM
T-47D breast
  TGI: > 100 µM
SK-OV-3 ovarian
  TGI: > 100 µM
SR leukemia
  TGI: > 100 µM
OVCAR-4 ovarian
  TGI: > 100 µM
RXF 393 renal
  TGI: > 100 µM
SNB-75 CNS
  TGI: > 100 µM
SF-295 CNS
  TGI: > 100 µM
SW-620 colon
  TGI: > 100 µM
MDA-MB-231 breast
  TGI: > 100 µM
MALME-3M melanoma
  TGI: > 100 µM
SK-MEL-2 melanoma
  TGI: > 100 µM
MDA-N
  TGI: > 100 µM
MDA-MB-435
  TGI: > 100 µM
SF-268 CNS
  TGI: > 100 µM
NCI/ADR-RES ovarian
  TGI: > 100 µM
SNB-19 CNS
  TGI: > 100 µM
SK-MEL-5 melanoma
  TGI: > 100 µM
HT29 colon
  TGI: > 100 µM
LOX IMVI melanoma
  TGI: > 100 µM
ACHN renal
  TGI: > 100 µM
NCI-H522 lung
  TGI: > 100 µM
A549 NSCLC
  TGI: > 100 µM
HCC-2998 colon
  TGI: > 100 µM
786-0 renal
  TGI: > 100 µM
OVCAR-8 ovarian
  TGI: > 100 µM
U251 CNS
  TGI: > 100 µM
SK-MEL-28 melanoma
  TGI: > 100 µM
KM12 colon
  TGI: > 100 µM
SN12C renal
  TGI: > 100 µM
UACC-62 melanoma
  TGI: > 100 µM
A498 renal
  TGI: > 100 µM
UO-31 renal
  TGI: > 100 µM
NCI-H226 lung
  TGI: > 100 µM
OVCAR-5 ovarian
  TGI: > 100 µM
OVCAR-3 ovarian
  TGI: > 100 µM
HCT-116 colon
  TGI: > 100 µM
NCI-H460 lung
  TGI: > 100 µM
M14 melanoma
  TGI: > 100 µM
BT-549 breast
  TGI: > 100 µM
CCRF-CEM leukemia
  TGI: > 100 µM
K-562 leukemia
  TGI: > 100 µM
IGROV1 ovarian
  TGI: > 100 µM
CAKI-1 renal
  TGI: > 100 µM
COLO 205 colon
  TGI: > 100 µM
PC-3 prostate
  TGI: > 100 µM

Source: PubChem BioAssay (NCI)
